Data published in US11214803B2, “Modulators of YAP1 expression” (Ionis Pharmaceuticals, Inc., priority 2019, dated 2022).
Strand notation (5' to 3'): a small letter for the sugar, then the base; units joined by * are phosphorothioate-linked, units joined directly phosphodiester-linked; [ ] holds rarer units or linkages, { } end groups; capitals alone tell only the bases. k = constrained ethyl (cEt); [5mC] = 5-methylcytosine; d = 2'-deoxy (DNA)

These substances were tested on Yap1 mRNA (assay: Antisense inhibition of human Yap1 in A-431 cells by cEt gapmers, single dose (Example 2, RTS4814)). Details: A-431 cells, 5,000 cells per well, free uptake, 2,000 nM modified oligonucleotide, approx. 48 hours, RTS4814, normalized to RIBOGREEN; Table 4; asterisk (*) = targets amplicon region of primer probe set.
Format: cell-based
How it was run: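 A-431 cells (5,000/well) took up 2,000 nM 3-10-3 cEt gapmer by free uptake for ~48 h. Yap1 mRNA was quantified by qRT-PCR with primer probe set RTS4814, normalized to RIBOGREEN total RNA, and reported as % of untreated control.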

Substance | YAP1 (% UTC)
716556 (kG*k[5mC]*kA*dT*dT*dA*dA*dA*dG*dA*dA*dT*dT*k[5mC]*kT*k[5mC]; antisense) [Compound 716556] | 39 % UTC

Same assay, conditions: Table 6; A-431 cells, 5,000 cells per well, free uptake, 2,000 nM modified oligonucleotide, approx. 48 hours; RTS4814; normalized to RIBOGREEN; Yap1 mRNA relative to untreated control cells

Substance | YAP1 (% UTC)
716429 (kT*kG*kG*d[5mC]*dA*dT*d[5mC]*d[5mC]*dA*dT*d[5mC]*dA*dT*k[5mC]*k[5mC]*kA; antisense) [Compound 716429] | 28 % UTC
716468 (kT*k[5mC]*kA*dT*d[5mC]*dA*dG*dA*dT*dA*dA*dT*dA*kT*k[5mC]*kT; antisense) [Compound 716468] | 118 % UTC

Same assay, conditions: Table 18; A-431 cells, 5,000 cells per well, free uptake, 2,000 nM modified oligonucleotide, approx. 48 hours; RTS4814; normalized to RIBOGREEN; Yap1 mRNA as percent of untreated control

Substance | YAP1 (% UTC)
1076036 (k[5mC]*kG*kT*dA*dA*dT*dT*dA*dG*dA*dA*dA*d[5mC]*kT*kT*kG; antisense) [Compound 1076036] | 19 % UTC
1076068 (k[5mC]*kT*kA*dA*dA*dA*dT*dG*dA*d[5mC]*d[5mC]*dT*dT*kA*kG*k[5mC]; antisense) [Compound 1076068] | 73 % UTC

Same assay, conditions: Table 19; A-431 cells, 5,000 cells per well, free uptake, 2,000 nM modified oligonucleotide, approx. 48 hours; RTS4814; normalized to RIBOGREEN; Yap1 mRNA as percent of untreated control

Substance | YAP1 (% UTC)
1074181 (antisense k[5mC]*k[5mC]*k[5mC]*dG*dG*dG*dA*dT*d[5mC]*d[5mC]*dA*dT*dG*kG*k[5mC]*kT) [Compound 1074181] | 107 % UTC
1074597 (antisense kA*kG*kT*dA*dT*dT*d[5mC]*dT*dA*dT*d[5mC]*d[5mC]*dA*kG*kG*kG) [Compound 1074597] | 5 % UTC
1075173 (antisense k[5mC]*kT*kT*dT*dA*dG*dG*dG*d[5mC]*dA*dA*d[5mC]*dT*kG*kT*kA) [Compound 1075173] | 22 % UTC

Same assay, conditions: Table 20; Yap1 mRNA, percent of untreated control; 3-10-3 cEt gapmers targeting SEQ ID NO.: 1 and 2

Substance | YAP1 (% UTC)
1075942 (kT*kG*kA*d[5mC]*dT*dA*dT*dA*d[5mC]*dA*dT*dG*dG*kT*kG*kA; antisense) [Compound 1075942] | 46 % UTC
1076134 (kG*kA*kT*dT*dA*dG*dA*dG*dT*dT*dG*dG*dG*k[5mC]*kA*kT; antisense) [Compound 1076134] | 10 % UTC
1074342 (antisense k[5mC]*kA*kT*d[5mC]*d[5mC]*d[5mC]*dG*dG*dG*dA*dG*dA*dA*kG*kA*k[5mC]) [Compound 1074342] | 56 % UTC
1076070 (kA*kT*kT*dA*dG*dT*dA*dA*dT*dG*d[5mC]*dA*d[5mC]*kA*kG*kG; antisense) [Compound 1076070] | 6 % UTC
1075974 (kA*kA*kA*dA*dA*dA*dT*dT*d[5mC]*d[5mC]*dG*d[5mC]*dA*kA*k[5mC]*kA; antisense) [Compound 1075974] | 39 % UTC
1075814 (kT*kA*kT*dA*dA*dA*dG*d[5mC]*dA*dG*dG*dG*d[5mC]*kA*kT*kT; antisense) [Compound 1075814] | 47 % UTC
1076454 (kT*kA*kA*dA*d[5mC]*dT*dA*dA*dT*d[5mC]*d[5mC]*d[5mC]*dA*kT*kA*kT; antisense) [Compound 1076454] | 35 % UTC

Same assay, conditions: Table 21; Yap1 mRNA, percent of untreated control; 3-10-3 cEt gapmers targeting SEQ ID NO.: 1 and 2

Substance | YAP1 (% UTC)
1074119 (antisense kG*k[5mC]*kA*d[5mC]*dT*d[5mC]*dG*dG*dA*d[5mC]*d[5mC]*dT*dG*k[5mC]*kG*kG) [Compound 1074119] | 71 % UTC

Same assay, conditions: Table 22; Yap1 mRNA as percent of untreated control; 3-10-3 cEt gapmers; single dose

Substance | YAP1 (% UTC)
1074184 (antisense kG*k[5mC]*k[5mC]*dG*dG*dT*dT*dG*dA*dG*dG*d[5mC]*dG*kG*k[5mC]*kG) [Compound 1074184] | 100 % UTC
1074376 (antisense kA*kA*k[5mC]*dG*dG*dT*dT*d[5mC]*dT*dG*d[5mC]*dT*dG*kT*kG*kA) [Compound 1074376] | 44 % UTC
1074216 (antisense kG*kA*kT*dT*dT*dG*dG*dG*d[5mC]*dT*d[5mC]*d[5mC]*dG*kG*k[5mC]*kG) [Compound 1074216] | 58 % UTC
1075208 (antisense kA*k[5mC]*kT*dG*dA*dA*d[5mC]*dA*d[5mC]*dA*dG*dG*d[5mC]*kT*kA*k[5mC]) [Compound 1075208] | 24 % UTC
1075912 (kA*kG*kT*dT*dA*dT*dA*d[5mC]*dA*d[5mC]*dA*dA*d[5mC]*k[5mC]*kA*k[5mC]; antisense) [Compound 1075912] | 13 % UTC
1075784 (kA*kT*kT*dT*dT*dA*dT*dA*dG*dG*dG*d[5mC]*d[5mC]*kA*kT*kT; antisense) [Compound 1075784] | 3 % UTC

Same assay, conditions: Table 23; Yap1 mRNA as percent of untreated control; 3-10-3 cEt gapmers; single dose

Substance | YAP1 (% UTC)
1074153 (antisense k[5mC]*kA*k[5mC]*dG*dG*dG*d[5mC]*d[5mC]*dG*dA*dG*dG*dT*kG*kG*kA) [Compound 1074153] | 78 % UTC
1076009 (kT*kA*kG*d[5mC]*dG*dA*dA*dA*dA*dT*dA*dA*d[5mC]*kA*kT*kT; antisense) [Compound 1076009] | 69 % UTC

Same assay, conditions: Table 25; Yap1 mRNA as percent of untreated control; 3-10-3 cEt gapmers targeting SEQ ID NO.: 1, and 2

Substance | YAP1 (% UTC)
1075211 (antisense kA*kA*kT*dA*dA*dA*dG*dG*dG*dT*d[5mC]*d[5mC]*dT*kA*kA*k[5mC]) [Compound 1075211] | 91 % UTC
1075275 (antisense k[5mC]*kT*kA*dG*dA*dA*dA*dG*dG*d[5mC]*d[5mC]*dA*dT*kG*kT*kA) [Compound 1075275] | 76 % UTC

Same assay, conditions: Table 32; Yap1 mRNA, percent of untreated control; 3-10-3 cEt gapmers targeting SEQ ID NO.: 1, and 2

Substance | YAP1 (% UTC)
1074994 (antisense kA*kA*kA*d[5mC]*dT*dA*dA*dA*dT*dG*dG*dA*d[5mC]*k[5mC]*kG*kG) [compound 1074994] | 94 % UTC
1074482 (kT*kA*kA*dT*dA*dT*dG*dG*dT*d[5mC]*dA*dT*dT*kT*kG*k[5mC]; antisense) [compound 1074482] | 12 % UTC

Same assay, conditions: Table 33; Yap1 mRNA, percent of untreated control; 3-10-3 cEt gapmers targeting SEQ ID NO.: 1, and 2

Substance | YAP1 (% UTC)
1074931 (antisense kG*kA*kG*dA*d[5mC]*dT*dA*dT*dA*d[5mC]*dA*dA*d[5mC]*kA*kG*kG) [compound 1074931] | 35 % UTC
1074259 (antisense kT*k[5mC]*kA*dT*dA*dT*dT*d[5mC]*dT*dG*d[5mC]*dT*dG*k[5mC]*kA*k[5mC]) [compound 1074259] | 38 % UTC
1074611 (DNA kT*kA*kG*d[5mC]*dT*dT*dA*dT*dA*dT*dT*dG*dA*kA*kG*kA) [compound 1074611] | 19 % UTC
1075859 (antisense kA*k[5mC]*kT*dT*dA*dT*d[5mC]*dA*d[5mC]*dT*d[5mC]*dT*dG*k[5mC]*k[5mC]*k[5mC]) [compound 1075859] | 20 % UTC
1076403 (antisense kA*kT*kT*dT*dA*dA*dG*dA*d[5mC]*d[5mC]*dT*dG*dG*kT*kG*kA) [compound 1076403] | 26 % UTC
1074323 (antisense k[5mC]*kA*kG*dG*dG*d[5mC]*dT*dA*dA*d[5mC]*dT*d[5mC]*d[5mC]*kT*kG*kA) [compound 1074323] | 116 % UTC

Same assay, conditions: Yap1 mRNA as percent of untreated control; A-431 cells; 3-10-3 cEt gapmers targeting SEQ ID NO.: 1, and 2; Table 30

Substance | YAP1 (% UTC)
1075280 (antisense kG*kA*kA*d[5mC]*dT*dA*dT*dA*d[5mC]*dT*dA*dA*d[5mC]*kA*kT*kT) [compound 1075280] | 57 % UTC
1075376 (antisense k[5mC]*k[5mC]*kT*dA*dA*dA*dT*dA*dT*d[5mC]*dA*dA*d[5mC]*kT*k[5mC]*k[5mC]) [compound 1075376] | 72 % UTC
1075056 (antisense k[5mC]*kT*kT*dT*dA*dT*dT*dA*dT*d[5mC]*dT*d[5mC]*dA*kA*k[5mC]*k[5mC]) [compound 1075056] | 21 % UTC

Same assay, conditions: Yap1 mRNA as percent of untreated control; A-431 cells; 3-10-3 cEt gapmers targeting SEQ ID NO.: 1, and 2; Table 31

Substance | YAP1 (% UTC)
1074833 (kT*kG*k[5mC]*dG*dA*dG*dG*dA*dT*dA*dA*dA*dA*kT*k[5mC]*k[5mC]; antisense) [compound 1074833] | 17 % UTC
1074385 (k[5mC]*kT*kT*d[5mC]*dA*dA*dG*dG*dT*dA*dG*dT*d[5mC]*kT*kG*kG; antisense) [compound 1074385] | 17 % UTC
1076433 (kA*kT*kT*dA*dA*d[5mC]*dT*dT*dT*d[5mC]*dG*d[5mC]*dT*kA*kA*kA; antisense) [compound 1076433] | 69 % UTC
